These results are taken from patent US7589063B2, “Molecules which promote hematopoiesis” (Aplagen GmbH, priority 2004, dated 2009).

This assay relates to TF-1 cells. The assay can be described thus: Proliferation assay with TF-1 cells by MTT. In kind it is cell-based. To be noted: MTT-assay data, dose-response fitted with GraphPad. How it is done:
TF-1 Cells in logarithmic growth phase (˜2×10^5−1×10^6 cells/ml; RPMI medium; 20% fetal calf serum; supplemented with Penicillin, streptomycin, L-Glutamine; 0.5 ng/ml Interleukin 3) are washed (centrifuge 5 min. 1500 rpm and resuspend in RPMI complete without IL3 at 500,000 cells/ml) and pre-cultured before start of the assay for 24 h without IL-3. At the next day the cells are seeded in 24- or 96-well plates usually using at least 6 concentrations and 4 wells per concentration containing at least 10,000 cells/well per agent to be tested. Each experiment includes controls comprising recombinant EPO as a positive control agent and wells without addition of cytokine as negative control agent. Peptides and EPO-controls are prediluted in medium to the desired concentrations and added to the cells, starting a culture period of 3 days under standard culture conditions (37° C., 5% carbon dioxide in the gas phase, atmosphere saturated with water). […]
At day 4, prior to start of the analysis, a dilution series of a known number of TF-1 cells is prepared in a number of wells (0/2500/5000/10000/20000/50000 cells/well in 100 μl medium). These wells are treated in the same way as the test wells and later provide a calibration curve from which cell numbers can be determined. […] 25 μl of 10% sodium dodecylsulfate in water are added to each well prior to measurement E492 in an ELISA Reader.
Background: Formazan colour is commonly taken as a measure of viable cells.

On to GGTYSCHFGGLTWVCKPQGG [SEQ. ID NO. 12], for which the EC50 values entry is recorded as “no activity detectable”.
